In paper PMC6940941, “Development of Thiazolidinedione-Based HDAC6 Inhibitors to Overcome Methamphetamine Addiction” (International Journal of Molecular Sciences, 2019):

Legend:
HDAC6 [1] = target: T1, HDAC6 (Homo sapiens, UniProt Q9UBN7); assay: Enzymatic HDAC fluorogenic assay (BPS Bioscience), HDAC6
T1 sequence (Q9UBN7 1-1215): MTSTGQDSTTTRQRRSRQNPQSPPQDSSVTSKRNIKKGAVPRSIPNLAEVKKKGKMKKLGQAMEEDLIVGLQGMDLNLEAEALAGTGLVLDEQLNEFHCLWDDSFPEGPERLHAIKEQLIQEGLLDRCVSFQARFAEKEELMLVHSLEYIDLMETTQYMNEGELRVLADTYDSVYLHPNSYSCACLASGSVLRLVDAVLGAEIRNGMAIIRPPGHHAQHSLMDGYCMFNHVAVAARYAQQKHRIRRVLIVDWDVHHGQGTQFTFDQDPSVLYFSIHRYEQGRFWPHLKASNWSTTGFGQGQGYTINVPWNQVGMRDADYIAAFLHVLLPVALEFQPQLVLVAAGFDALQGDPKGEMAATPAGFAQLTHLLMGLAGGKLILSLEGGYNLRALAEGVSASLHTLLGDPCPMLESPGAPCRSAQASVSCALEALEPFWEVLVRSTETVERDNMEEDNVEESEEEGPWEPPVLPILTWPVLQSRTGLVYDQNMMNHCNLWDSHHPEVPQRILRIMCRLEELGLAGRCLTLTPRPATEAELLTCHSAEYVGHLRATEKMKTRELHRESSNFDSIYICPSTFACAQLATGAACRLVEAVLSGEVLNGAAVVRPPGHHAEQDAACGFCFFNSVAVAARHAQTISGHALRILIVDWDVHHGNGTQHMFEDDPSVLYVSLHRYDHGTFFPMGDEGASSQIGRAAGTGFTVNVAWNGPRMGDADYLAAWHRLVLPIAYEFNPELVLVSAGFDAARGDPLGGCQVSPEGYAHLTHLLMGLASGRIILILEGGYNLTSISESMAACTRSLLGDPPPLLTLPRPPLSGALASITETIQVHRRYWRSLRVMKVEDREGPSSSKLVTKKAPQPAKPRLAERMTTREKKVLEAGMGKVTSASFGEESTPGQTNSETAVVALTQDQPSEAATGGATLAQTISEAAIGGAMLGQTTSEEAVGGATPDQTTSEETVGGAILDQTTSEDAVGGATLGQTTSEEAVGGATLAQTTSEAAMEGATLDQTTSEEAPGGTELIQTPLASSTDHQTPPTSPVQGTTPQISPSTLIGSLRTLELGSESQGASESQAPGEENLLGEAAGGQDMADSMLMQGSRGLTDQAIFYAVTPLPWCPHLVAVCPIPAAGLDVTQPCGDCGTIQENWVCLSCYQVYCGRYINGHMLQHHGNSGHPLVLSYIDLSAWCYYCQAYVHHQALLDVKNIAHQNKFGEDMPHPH
Protocol: (§4) Tubastain A (Portland, OR, USA) was purchased from TCI chemicals.
(§5) Enzymatic HDAC assay was performed following manufacturer’s protocol (BPS Bioscience). Briefly, HDAC assay buffer (35 µL) was mixed with 5 µL of BSA (1 mg/mL) and 5 µL of HDAC substrate (200 µM) in 96-well black plate. […] After incubation, 50 µL of undiluted 2 × HDAC developer was added to each well. After the mixture was incubated at RT for 15 min, fluorescence intensity was measured using a microplate reader at 360 nm excitation and 460 nm emission wavelengths.

HDAC1 = target: T2, HDAC1 (Homo sapiens, UniProt Q13547); assay: Enzymatic HDAC fluorogenic assay (BPS Bioscience), HDAC1; format: biochemical; settings: 37 °C, 30 min incubation
T2 construct: purchased BPS Bioscience #50061
T2 sequence (Q13547 whole entry): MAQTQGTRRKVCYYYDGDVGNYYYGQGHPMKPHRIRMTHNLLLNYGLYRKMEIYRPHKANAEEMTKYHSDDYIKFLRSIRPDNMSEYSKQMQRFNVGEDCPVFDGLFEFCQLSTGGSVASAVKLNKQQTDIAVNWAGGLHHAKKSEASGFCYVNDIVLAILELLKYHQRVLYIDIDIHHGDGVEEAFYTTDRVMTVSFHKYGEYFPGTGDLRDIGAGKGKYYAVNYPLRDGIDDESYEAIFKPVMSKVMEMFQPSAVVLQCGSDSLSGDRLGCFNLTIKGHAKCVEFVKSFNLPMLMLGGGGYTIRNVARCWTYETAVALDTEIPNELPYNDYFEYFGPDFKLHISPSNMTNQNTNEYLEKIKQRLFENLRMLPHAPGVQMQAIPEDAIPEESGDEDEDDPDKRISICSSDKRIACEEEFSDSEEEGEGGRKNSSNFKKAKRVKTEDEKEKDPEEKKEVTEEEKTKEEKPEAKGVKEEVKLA
Protocol: as §4, §5

SH-SY5Y cells [2] = assay: Assessment of cell morphology (phase contrast microscopy); format: cell-based, human
Protocol: SH-SY5Y cells (1 × 10^4 cells/well) were seeded in 6-well plate, and the cells were allowed to attach for 72 h. Culture medium was then changed to fresh medium containing METH (1 mM) for pretreat 4 h. After being preincubated for 4 h, add to compound 6b (5, 10, and 20 µM) for 24 h.
Figure 3 Effect of methamphetamine (METH) and compound 6b on the cell morphology and viability of SH-SY5Y cells. (A) Effect of methamphetamine on the cell viability of SH-SY5Y. Cells were incubated with the indicated concentrations of methamphetamine (METH) for 24 h and cell viability was measured using the colorimetric MTS assay. Data are presented as mean ± SD (n = 4). (B) Bright-field images of SH-SY5Y cells. […]

SH-SY5Y cells [3] = assay: Cell viability, colorimetric MTS assay; format: cell-based, human; settings: 24 h, up to 1 mM
Protocol: SH-SY5Y (1 × 10^3 cells/well) were seeded in 96-well plate, the medium volume was brought to 100 µL, and the cells were allowed to attach for 14 h. Various concentrations of compound 6b (1, 5, 10, 30, 50, 70, and 100 µM) and METH (0.1 and 1 mM) were then added to the wells. Cells were then incubated at 37 °C for 24 h. Cell viability was determined using the Promega Cell Titer 96 Aqueous One Solution cell proliferation assay. Absorbance at 490 nm was read on Tecan Infinite F200 Pro plate reader, and values were expressed as percent of absorbance from cells incubated in DMSO alone.
Figure 2 Effect of compound 6b on the cell viability of SH-SY5Y and the acetylation status of α-tubulin and Histone H3. (A) SH-SY5Y cells were treated with the indicated concentrations of compound 6b for 24 h and the cell viability was measured using the colorimetric MTS assay. Data are presented as mean ± SD (n = 4). (B) SH-SY5Y cells were incubated with the indicated concentrations of compound 6b or Tubastatin A (Tub) for 24 h and the expression levels of α-tubulin, Ac-α-tubulin, Histone H3, and Ac-Histone H3 were analysed by Western blot. […]
Figure 3 Effect of methamphetamine (METH) and compound 6b on the cell morphology and viability of SH-SY5Y cells. […] Cells were incubated with the indicated concentrations of methamphetamine (METH) for 24 h and cell viability was measured using the colorimetric MTS assay. […]

Ac-α-tubulin = assay: Western blot of Ac-α-tubulin / α-tubulin in SH-SY5Y cells; format: cell-based, human
Protocol: (§1) We further explored the precise cellular mechanism of compound 6b. Histone H3 and α-tubulin are well-known substrates of HDAC1 and HDAC6 [23, 24]. Therefore, inhibition of HDAC1 and HDAC6 enzymes promotes the accumulation of acetylated Histone H3 and α-tubulin, respectively. Therefore, SH-SY5Y cells were incubated with compound 6b at various concentrations (0, 1, 5, 10, and 20 µM) for 24 h and the expression levels of α-tubulin, Ac-α-tubulin, Histone H3, and Ac-Histone H3 were analysed by Western blot. […] The administration of 6b at relatively low concentration of 1 µM caused the acetylation of α-tubulin via inhibition of HDAC6.
We next explored the underlying molecular and biochemical mechanisms behind the morphological changes. α-Tubulin is the basic protein that constitutes the cytoskeleton and the dynamic acetylation and deacetylation of α-tubulin play an important role in the morphology of cells. […]. […] We next investigated if compound 6b reversed the loss of the acetylation caused by methamphetamine. […].
(§2) The cells were washed and lysed in ice-cold lysis buffer (23 mM Tris-HCl pH 7.6, 130 mM NaCl, 1% NP-40, 1% sodium deoxycholate, 0.1% SDS) and 30 µg of lysate per lane was separated by SDS-PAGE, followed by transferring to a PVDF membrane (Bio rad, Hercules, USA). The membrane was blocked with 5% skim milk in TBST, and then incubated with primary antibody. After being treated with goat-anti rabbit secondary antibody (Santa Cruz, CA, USA) coupled horseradish peroxidase, proteins were visualized by ECL chemiluminescence according to the instructions of the manufacturer’s instruction (GE Healthcare, Chicago, IL, USA).
(§3) Figure 2 Effect of compound 6b on the cell viability of SH-SY5Y and the acetylation status of α-tubulin and Histone H3. (A) SH-SY5Y cells were treated with the indicated concentrations of compound 6b for 24 h and the cell viability was measured using the colorimetric MTS assay. Data are presented as mean ± SD (n = 4). (B) SH-SY5Y cells were incubated with the indicated concentrations of compound 6b or Tubastatin A (Tub) for 24 h and the expression levels of α-tubulin, Ac-α-tubulin, Histone H3, and Ac-Histone H3 were analysed by Western blot. Tubastatin A was employed as a positive control and β-actin was used as a loading control. The p value was obtained by Student t-test. * p < 0.01 as compared to vehicle.
. (A) SH-SY5Y cells were incubated with the indicated concentrations of methamphetamine (METH) for 24 h and the expression levels of Ac-α-tubulin and α-tubulin were analysed by Western blot. β-actin was used as a loading control. […]

HDAC6 [4] = target: T1, HDAC6
Protocol: as §4, §5

Ac-Histone H3 = assay: Western blot of Ac-Histone H3 / Histone H3 in SH-SY5Y cells; format: cell-based, human; settings: 24 h
Protocol: as §1, §2, §3

[5] = set-up: method as in PMID 30597327; settings: hampered in vivo application; cited from earlier work
[6] = SH-SY5Y, 0, 0.5, 1, 2, and 3 mM, 24 h

## O=C(NO)c1cccc(CN2C(=O)CSC2=O)c1 [Compound 6a, 3-((2,4-Dioxothiazolidin-3-yl)methyl)-N-hydroxybenzamide]
HDAC6 [1]
  IC50: 1960 nM
HDAC1
  IC50: > 50000 nM

## CCCC1SC(=O)N(Cc2ccc(C(=O)NO)cc2)C1=O (centres unmarked) [Compound 8a, 4-((2,4-Dioxo-5-propylthiazolidin-3-yl)methyl)-N-hydroxybenzamide]
HDAC6 [1]
  IC50: 79300 nM
HDAC1
  IC50: > 100000 nM

## CN[C@@H](C)Cc1ccccc1 [methamphetamine, Methamphetamine]
SH-SY5Y cells [2]; SH-SY5Y, 1 mM
  cell morphology: rounded shape with a shrunken morphology
SH-SY5Y cells [3]
  effect on cell viability: no toxicity
Ac-α-tubulin; [6]
  acetylation of α-tubulin: dose-dependently decreased
  expression level of α-tubulin: remained unchanged

## C=CCC1SC(=O)N(Cc2ccc(C(=O)NO)cc2)C1=O (centres unmarked) [Compound 8b, 4-((5-Allyl-2,4-dioxothiazolidin-3-yl)methyl)-N-hydroxybenzamide]
HDAC6 [1]
  IC50: 1300 nM
HDAC1
  IC50: > 100000 nM

## O=C(NO)c1ccc(CN2C(=O)CSC2=O)cc1 [Compound 6b, 4-((2,4-Dioxothiazolidin-3-yl)methyl)-N-hydroxybenzamide]
HDAC6 [1]
  IC50: 21 nM
HDAC6 [4]
  Selectivity Index: 18.5
HDAC1
  IC50: 388 nM
SH-SY5Y cells [2]; SH-SY5Y pretreated with 1 mM METH for 4 h, then 5, 10, and 20 µM for 24 h, dose-dependent
  effect on METH-induced cell morphology change: reversed effect on the cell morphology change from a rounded shape back to a spindle shape
Ac-Histone H3; SH-SY5Y, 0, 1, 5, 10, and 20 µM
  acetylation of Histone H3: dose-dependently induced
Ac-Histone H3; SH-SY5Y, 0-20 µM
  protein level of Histone H3: increases in proportion to the concentration
Ac-Histone H3; SH-SY5Y
  concentration able to promote the acetylation of Histone H3: 10 µM
Ac-α-tubulin; SH-SY5Y pretreated with METH 3 mM for 4 h, then 6b (1 µM) for 24 h
  acetylation of α-tubulin after METH-promoted loss of acetylation: significant increase
Ac-α-tubulin; SH-SY5Y, 0, 1, 5, 10, and 20 µM, 24 h
  acetylation of α-tubulin: dose-dependently induced
Ac-α-tubulin; SH-SY5Y, 24 h
  concentration that caused the acetylation of α-tubulin: 1 µM

## O=C(NO)c1ccc(CN2C(=O)SC(Cc3ccccc3)C2=O)cc1 (centres unmarked) [Compound 8c, 4-((5-Benzyl-2,4-dioxothiazolidin-3-yl)methyl)-N-hydroxybenzamide]
HDAC6 [1]
  IC50: 628 nM
HDAC1
  IC50: > 100000 nM

## O=C(NO)c1ccc2c(c1)C(=O)c1ccccc1C2=O [anthraquinone-based HDAC6 inhibitor]
[5]
  solubility: poor solubility
